The values below come from patent publication US20260224512A1, “USE OF 5-METHOXY-2-AMINOINDAN ("MEAI") IN METHODS FOR TREATING METABOLIC SYNDROME” (Clearmind Labs Corp., priority 2022, published 2026).

Data set [1] deals with DIO mouse model. Description: Glucose tolerance test (ipGTT), insulin tolerance test (ipITT) and glycemic parameters in DIO mice. Conditions: 40 mg/kg/day. It counts as in vivo. On the procedure: (§1) Effect of MEAI on Obesity. Male C57BL/6 mice were used to establish DIO by feeding them a high-fat diet (HFD; 60% Kcal fat, 20% Kcal protein, and 20% Kcal carbohydrates; Research Diet, D12492) for 18 weeks. After this period, mice were treated with either vehicle (sterile water, N=8) or MEAI (N=11) daily for 28 days by gavage at a dose of 40 mg/kg/day. Age-matched control mice (N=10) on a standard diet (STD; 14% Kcal fat, 24% Kcal protein, 62% Kcal carbohydrates; NIH-31 rodent diet) and received vehicle daily. The body weight of all mice was monitored daily, and total body fat and lean mass were determined by EchoMRI-100H™ (Echo Medical Systems LLC, Houston, TX, USA). On Day 29, at the end of the experimental period, mice were euthanized by a cervical dislocation under anesthesia. The kidneys, brain, liver, and fat pads were removed and weighed, and samples were either snap-frozen or fixed in buffered 4% formalin. Trunk blood was collected to determine biochemical parameters.
Glucose Tolerance Test (ipGTT) and the Insulin Tolerance Test (ipITT). On day 25 of the experiment, mice were subjected to an overnight fasting and then injected with glucose (1.5 g/kg i.p.) on the following day (day 26). Blood glucose levels were determined at 0, 15, 30, 45, 60, 90, and 120 min after injection using the Contour® glucometer (Bayer, Pittsburgh, PA, USA). The mice were then fasted for 6 h on the next day (day 27) before being administered insulin (0.75 U/kg, i.p.; Actrapid vials, Novo Nordisk A/S, Bagsværd, Denmark). Blood glucose levels were determined at the same intervals as described above. To assess insulin resistance, the homeostasis model assessment insulin resistance (HOMA-IR) was calculated as fasting serum insulin ([μU/mL]×fasting plasma glucose [mmol/L]/22.5). The relative insulin sensitivity index (ISI) was calculated as 1/(glucose×insulin)×1000, with glucose expressed as mg/dl and insulin as mU/L.
Blood and urine biochemistry. Serum levels of alanine aminotransferase (ALT), aspartate aminotransferase (AST), alkaline phosphatase (ALP), cholesterol, triglycerides, high-density lipoprotein (HDL), and low-density lipoprotein (LDL) were determined by using the Cobas C-111 chemistry analyzer (Roche, Switzerland). Blood urea nitrogen (BUN) was calculated based on serum urea levels as follows: BUN (mg/dL)=Urea (mg/dL)/2.1428. Fasting blood glucose was measured using the Contour® glucometer (Bayer, Pittsburgh, PA). Serum insulin was determined using an Ultra-Sensitive Mouse Insulin ELISA kit (Crystal Chem, Inc., Elk Grove Village, IL, USA).

Data set [2] concerns DIO mouse model. The data set can be described thus: Hepatic triglyceride and cholesterol content, Oil Red O staining in DIO mice. It counts as in vivo. The following applies: 40 mg/kg/day. Here is the method: as §1
Hepatic Triglyceride and Cholesterol Content. Liver tissue was extracted as described in (Tam et al., 2012), and its cholesterol and triglycerides contents were determined using a Cobas C-111 chemistry analyzer (Roche, Switzerland).
Histopathology. First, 5 μm paraffin-embedded liver sections from 5 animals per group were stained with hematoxylin-eosin staining. Liver images were captured using a Zeiss Axio Scope A1 light microscope (Carl Zeiss AG, Jena, Germany equipped with a Zeiss AxioCam ICc5 color camera. Ten random 40× fields of view were taken from each animal to obtained representative images.
Oil Red O staining. Liver cryosections (8 μm) were stained with Oil Red O (Cat #ab150678; Abcam) following the manufacturer's protocol. Images were acquired as described above. For quantitative analysis of Oil Red O staining, the area of lipid droplets in the liver cryosections was measured using the ImageJ software.

Data set [3] has as its system C57BL/6 mice. Description: Acute wheel running and locomotive activity. It counts as in vivo. On the procedure:
Male 6-week-old C57BL/6 mice (Envigo, Israel) were maintained under a 12-h light/dark cycle and fed ad libitum. A total of 32 animals were divided into four experimental groups (N=8 mice per group) receiving single doses of 40, 60, or 100 mg/kg of MEAI or vehicle (sterile water), which was administered via oral gavage two hours prior to the dark phase. The animals were monitored for 48 hours post-dose for drug tolerability, food and water intakes as well as activity and metabolic parameters. At the end of the experiment, the animals were euthanized, and tissues (brain, liver, fat, and kidney) and blood were collected and stored frozen for future analyses. To generate diet-induced obesity, C57BI6/J mice were fed either a high-fat diet (HFD) (60% of calories from fat, 20% from protein, and 20% from carbohydrates; Research Diet, D12492) or a standard laboratory diet (STD, 14% fat, 24% protein, 62% carbohydrates; NIH-31 rodent diet) for 18 weeks.
(§2) Wheel running and locomotive activity. The assessment of wheel running and locomotor activity was performed using the Promethion High-Definition Behavioral Phenotyping System (Sable Instruments, Inc., Las Vegas, NV, USA). Wheel revolutions were measured with a monitor that recorded voluntary wheel running activity, and locomotor activity was quantified using disruptions of infrared XYZ beam arrays, with a beam spacing of 0.25 cm.

Data set [4] concerns DIO mouse model. Description: Chronic MEAI in DIO model: wheel running and locomotive activity. It is filed as in vivo, mice. Conditions: 40 mg/kg/day. On the procedure: as §1, §2
Where [5] appears, read: compared to HFD vehicle control.
[6] abbreviates: compared to HFD vehicle-treated group.
Setting [7] is: single dose, 40 mg/kg and above.
The mark [8] stands for this setting: in comparison with HFD-vehicle group.

The structures appear in SMILES notation.

For the compound `COc1ccc2c(c1)CC(N)C2` (centres unmarked) [MEAI, 5-methoxy-2-aminoindan], in data set [1], the HOMA-IR result is reported as “beneficial effects”; the fasting blood glucose entry is given as “reduced”; the “glucose metabolism (glucose and insulin tolerance tests)” value is listed as “significant improvement”; the insulin levels result is reported as “reduced”. Also, in data set [1], the “insulin sensitivity (insulin tolerance test)” value was “normalized” and the “insulin sensitivity index (ISI)” value is “beneficial effects”. For the same compound, in data set [2] (setting [5]), the hepatic cholesterol levels result is given as “trend toward a reduction” and the liver triglycerides result was “significant reductions”. Moreover, in data set [2] (setting [6]), the “Oil Red O staining” value is on record as “decrease” and the lipid vacuole numbers result was “reduced”. In data set [3] (single dose 100 mg/kg), the voluntary wheel running entry is reported as “significant suppression”. For the same compound, the “total number of beam breaks (ambulatory and fine movements)” value in data set [3] (single dose 40, 60, 100 mg/kg) is on record as “no significant changes”. The voluntary wheel running result in data set [3] (single dose 40 and 60 mg/kg) is on record as “minor elevations”. Besides, in data set [3] (setting [7]), the “directed voluntary activity (pedestrian locomotion)” value is “significant and dose-dependent increase”; the pedestrian speed result was “significant and dose-dependent increase”. Besides, the total pedometer count entry in data set [3] (single dose, all doses tested (40, 60, 100 mg/kg)) was “increase”. In addition, in data set [4] (HFD-fed mice), the “pedestrian locomotive activity, speed and total distance relative to STD-vehicle group (over-stimulatory effect)” value is “did not surpass the levels of the STD-vehicle treated group”; the “time spent engaging in various activities within the cage” value was “preference for voluntary activities”; the voluntary wheel running result is given as “increased capability”. Also, the “voluntary actions such as pedestrian activity and grooming (ambulatory activity)” value in data set [4] (HFD-fed mice, throughout the day, more prominent in dark phase) is on record as “significantly increased”. Moreover, in data set [4] (setting [8]), the pedestrian locomotion speed entry was “increased”, the pedestrian locomotive activity entry is recorded as “increased” and the total distance travelled result is given as “increased”.
